Data from patent US11566007B2, “Ras inhibitors” (Revolution Medicines, Inc., priority 2019, dated 2023).

Experiments:
[1] = system: NCI-H358 (K-Ras G12C); test: CellTiter-Glo cell viability assay, NCI-H358; type: cell-based, human; settings: Homo sapiens, NCI-H358, 120 h, NCI-H358, 5-day treatment; class symbols; read-out: Additional H358 Cell Viability assay data (K-Ras G12C, IC50)
Method in brief: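 Compounds were dispensed directly onto K-Ras mutant cells and incubated until day 5, then plates were equilibrated to room temperature for about 30 minutes before CellTiter-Glo luminescence. Signals were normalized as (sample/average DMSO)*100 and fitted by four-parameter logistic fit.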

[2] = biological target: K-Ras G12C (Homo sapiens (Human), UniProt P01116+P62937, G12C); test: Ras-Raf (BRAF RBD) disruption / FRET / MOA assay, KRAS G12C; type: biochemical; settings: KRAS G12C; Ras-Raf disruption/FRET/MOA assay; read-out: IC50* KRAS G12C FRET data
Method in brief: (§1)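 Compounds, top final concentration 30 μM in 10-point 3-fold series, incubated 3 hours at 25° C with nucleotide-loaded Ras, cyclophilin A and BRAF RBD.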

[3] = biological target: K-Ras G13C (Homo sapiens (Human), UniProt P01116+P62937, G13C); test: Ras-Raf (BRAF RBD) disruption / FRET / MOA assay, KRAS G13C; type: biochemical; settings: KRAS G13C; Ras-Raf disruption/FRET/MOA assay; read-out: IC50* KRAS G13C FRET data
Method in brief: as §1

[4] = biological target: KRAS G12S (Homo sapiens (Human), UniProt P01116+P62937, G12S); test: Ras-Raf (BRAF RBD) disruption / FRET / MOA assay, KRAS G12S; type: biochemical; settings: Ras-Raf disruption/FRET/MOA assay; class symbols; read-out: KRAS G12S FRET data IC50
Method in brief: as §1

[5] = biological target: KRAS G12D (Homo sapiens (Human), UniProt P01116+P62937, G12D); test: Ras-Raf (BRAF RBD) disruption / FRET / MOA assay, KRAS G12D; type: biochemical; settings: Ras-Raf disruption/FRET/MOA assay; class symbols; read-out: KRAS G12D FRET data IC50
Method in brief: as §1

[6] = biological target: KRAS WT (Homo sapiens (Human), UniProt P01116+P62937); test: Ras-Raf (BRAF RBD) disruption / FRET / MOA assay, KRAS WT; type: biochemical; settings: read-out: IC50* KRAS WT FRET data
Method in brief: as §1

[7] = biological target: KRAS G13D (Homo sapiens (Human), UniProt P01116+P62937, G13D); test: Ras-Raf (BRAF RBD) disruption / FRET / MOA assay, KRAS G13D; type: biochemical; settings: read-out: IC50* KRAS G13D FRET data
Method in brief: as §1

[8] = biological target: KRAS Q61H (Homo sapiens (Human), UniProt P01116+P62937, Q61H); test: Ras-Raf (BRAF RBD) disruption / FRET / MOA assay, KRAS Q61H; type: biochemical; settings: Ras-Raf disruption/FRET/MOA assay; class symbols; read-out: KRAS Q61H FRET data IC50
Method in brief: (§2)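 TR-FRET disruption of nucleotide-loaded Ras binding to BRAF RBD via compound-driven ternary complex with cyclophilin A. Compound as 10-point 3-fold series from 30 μM final, 3 h at 25° C, then anti-His Eu-W1024 (10 nM) and anti-GST allophycocyanin (50 nM) for 1.5 h. IC50 from decreased FRET ratio versus DMSO.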

[9] = biological target: NRAS G12C (Homo sapiens (Human), UniProt P01111+P62937, G12C); test: Ras-Raf (BRAF RBD) disruption / FRET / MOA assay, NRAS G12C; type: biochemical; settings: read-out: IC50* NRAS G12C FRET data
Method in brief: as §1

[10] = biological target: NRAS Q61R (Homo sapiens (Human), UniProt P01111+P62937, Q61R); test: Ras-Raf (BRAF RBD) disruption / FRET / MOA assay, NRAS Q61R; type: biochemical; settings: NRAS Q61R; Ras-Raf disruption/FRET/MOA assay; read-out: IC50* NRAS Q61R FRET data
Method in brief: as §2

[11] = biological target: NRAS Q61K (Homo sapiens (Human), UniProt P01111+P62937, Q61K); test: Ras-Raf (BRAF RBD) disruption / FRET / MOA assay, NRAS Q61K; type: biochemical; settings: NRAS Q61K; Ras-Raf disruption/FRET/MOA assay; read-out: IC50* NRAS Q61K FRET data
Method in brief: as §2

[12] = biological target: NRAS WT (Homo sapiens (Human), UniProt P01111+P62937); test: Ras-Raf (BRAF RBD) disruption / FRET / MOA assay, NRAS WT; type: biochemical; settings: read-out: IC50* NRAS WT FRET data
Method in brief: as §2

NRAS G12C, sequence (P01111 whole entry G12C): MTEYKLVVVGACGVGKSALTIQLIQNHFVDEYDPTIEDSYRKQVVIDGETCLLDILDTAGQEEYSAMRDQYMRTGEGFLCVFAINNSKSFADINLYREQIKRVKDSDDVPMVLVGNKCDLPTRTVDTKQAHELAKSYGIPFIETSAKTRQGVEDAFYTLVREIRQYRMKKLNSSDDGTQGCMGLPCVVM
NRAS G12C, sequence (P62937 whole entry): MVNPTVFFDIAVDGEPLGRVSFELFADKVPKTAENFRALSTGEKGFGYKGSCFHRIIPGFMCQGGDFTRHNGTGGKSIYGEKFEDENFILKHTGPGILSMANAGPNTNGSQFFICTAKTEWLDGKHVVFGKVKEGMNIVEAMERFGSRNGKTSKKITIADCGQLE
KRAS G12D, sequence (P01116-2 other isoform, or with tags, fused parts or gaps G12D): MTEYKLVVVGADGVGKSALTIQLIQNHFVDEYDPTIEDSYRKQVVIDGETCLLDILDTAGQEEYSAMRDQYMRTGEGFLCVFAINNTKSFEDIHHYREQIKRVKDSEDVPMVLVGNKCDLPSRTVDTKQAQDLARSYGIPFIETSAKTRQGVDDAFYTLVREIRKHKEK
KRAS G12D, sequence (P62937 whole entry): as the sequence (P62937 whole entry) above
K-Ras G13C, sequence (P01116-2 other isoform, or with tags, fused parts or gaps G13C): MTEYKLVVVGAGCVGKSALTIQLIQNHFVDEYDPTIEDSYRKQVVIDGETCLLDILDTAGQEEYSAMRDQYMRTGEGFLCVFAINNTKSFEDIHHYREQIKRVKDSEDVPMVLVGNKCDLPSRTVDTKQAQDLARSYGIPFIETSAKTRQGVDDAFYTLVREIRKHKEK
K-Ras G13C, sequence (P62937 whole entry): as the sequence (P62937 whole entry) above
NRAS Q61K, sequence (P01111 whole entry Q61K): as the sequence (P01111 whole entry G12C) above, with C12G, Q61K counted along it
NRAS Q61K, sequence (P62937 whole entry): as the sequence (P62937 whole entry) above
K-Ras G12C, sequence (P01116-2 other isoform, or with tags, fused parts or gaps G12C): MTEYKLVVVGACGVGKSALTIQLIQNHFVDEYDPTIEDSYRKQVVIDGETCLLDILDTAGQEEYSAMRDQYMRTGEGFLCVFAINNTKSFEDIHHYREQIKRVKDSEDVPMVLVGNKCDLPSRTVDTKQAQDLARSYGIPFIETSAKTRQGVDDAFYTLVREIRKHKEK
K-Ras G12C, sequence (P62937 whole entry): as the sequence (P62937 whole entry) above
KRAS G12S, sequence (P01116-2 other isoform, or with tags, fused parts or gaps G12S): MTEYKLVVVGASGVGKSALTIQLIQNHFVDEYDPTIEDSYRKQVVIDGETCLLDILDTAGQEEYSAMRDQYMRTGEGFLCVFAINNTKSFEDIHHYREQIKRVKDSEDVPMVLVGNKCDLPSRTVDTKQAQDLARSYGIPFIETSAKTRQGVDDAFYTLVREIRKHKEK
KRAS G12S, sequence (P62937 whole entry): as the sequence (P62937 whole entry) above
NRAS WT, sequence (P01111 whole entry): as the sequence (P01111 whole entry G12C) above, with C12G counted along it
NRAS WT, sequence (P62937 whole entry): as the sequence (P62937 whole entry) above
NRAS Q61R, sequence (P01111 whole entry Q61R): as the sequence (P01111 whole entry G12C) above, with C12G, Q61R counted along it
NRAS Q61R, sequence (P62937 whole entry): as the sequence (P62937 whole entry) above
KRAS G13D, sequence (P01116-2 other isoform, or with tags, fused parts or gaps G13D): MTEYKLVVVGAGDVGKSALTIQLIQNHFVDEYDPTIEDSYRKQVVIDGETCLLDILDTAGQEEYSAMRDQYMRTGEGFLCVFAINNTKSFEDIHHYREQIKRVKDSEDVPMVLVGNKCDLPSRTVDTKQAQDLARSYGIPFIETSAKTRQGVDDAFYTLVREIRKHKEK
KRAS G13D, sequence (P62937 whole entry): as the sequence (P62937 whole entry) above
KRAS Q61H, sequence (P01116-2 other isoform, or with tags, fused parts or gaps Q61H): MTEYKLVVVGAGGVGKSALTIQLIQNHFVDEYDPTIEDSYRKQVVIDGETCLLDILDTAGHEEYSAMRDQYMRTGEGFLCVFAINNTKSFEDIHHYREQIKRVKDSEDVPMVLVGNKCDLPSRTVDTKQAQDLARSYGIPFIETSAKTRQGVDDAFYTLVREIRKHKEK
KRAS Q61H, sequence (P62937 whole entry): as the sequence (P62937 whole entry) above
KRAS WT, sequence (P01116-2 other isoform, or with tags, fused parts or gaps): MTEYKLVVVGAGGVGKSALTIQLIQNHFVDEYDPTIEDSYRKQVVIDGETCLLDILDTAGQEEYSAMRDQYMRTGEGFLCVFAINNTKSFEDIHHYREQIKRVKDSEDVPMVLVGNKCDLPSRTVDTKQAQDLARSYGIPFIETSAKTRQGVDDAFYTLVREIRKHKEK
KRAS WT, sequence (P62937 whole entry): as the sequence (P62937 whole entry) above

Structure (SMILES)	IC50 [1] [nM]	IC50 [2] [nM]	IC50 [3] [nM]	IC50 [4] [nM]	IC50 [5] [nM]	IC50 [6] [nM]	IC50 [7] [nM]	IC50 [8] [nM]	IC50 [9] [nM]	IC50 [10] [nM]	IC50 [11] [nM]	IC50 [12] [nM]
CCn1c(-c2cccnc2[C@H](C)OC)c2c3cc(ccc31)-c1csc(n1)C[C@H](NC(=O)[C@H](C(C)C)N(C)C(=O)N1CC(N(C)C(=O)/C=C/CN(C)C)C1)C(=O)N1CCC[C@H](N1)C(=O)OCC(C)(C)C2 (atropisomer, axis not shown) [Example A710]	10 to 100	10 to 100	100 to 1000	100 to 1000	100 to 1000	100 to 1000	100 to 1000	10 to 100	10 to 100	100 to 1000	10 to 100	100 to 1000
C=C(OC)C(=O)N1CC(N(C)C(=O)N(C)[C@H](C(=O)N[C@H]2Cc3nc(cs3)-c3ccc4c(c3)c(c(-c3cccnc3[C@H](C)OC)n4CC)CC(C)(C)COC(=O)[C@@H]3CCCN(N3)C2=O)C(C)C)C1 (atropisomer, axis not shown) [Example A713]	10 to 100	100 to 1000	1000 to 10000	100 to 1000	1000 to 10000	100 to 1000	1000 to 10000	100 to 1000	100 to 1000	100 to 1000	100 to 1000	100 to 1000
C=CC(=O)N1CC[C@H](C(=O)N(C)[C@H](C(=O)N[C@H]2CN3CCC=C(C3)c3ccc4c(c3)c(c(-c3cccnc3[C@H](C)OC)n4CC)CC(C)(C)COC(=O)[C@@H]3CCCN(N3)C2=O)C(C)C)C1 (atropisomer, axis not shown) [Example A716, (3S)-1-acryloyl-N-((2S)-1-(((6^3S,4S)-1^1-ethyl-1^2-(2-((S)-1-methoxyethyl)pyridin-3-yl)-10,10-dimethyl-5,7-dioxo-2^1,2^2,2^3,2^6,6^1,6^2,6^3,6^4,6^5,6^6-decahydro-1^1H-8-oxa-1(5,3)-indola-6(1,3)-pyridazina-2(5,1)-pyridinacycloundecaphane-4-yl)amino)-3-methyl-1-oxobutan-2-yl)-N-methylpyrrolidine-3-carboxamide]	10 to 100	100 to 1000	1000 to 10000	1000 to 10000	> 10000	1000 to 10000	> 10000	1000 to 10000	100 to 1000	> 10000	> 10000	1000 to 10000
CCn1c(-c2cccnc2[C@H](C)OC)c2c3cc(ccc31)-c1nc(nn1C)C[C@H](NC(=O)[C@@H](COC1CN(C(=O)C#CC(C)(C)N(C)C)C1)C(C)C)C(=O)N1CCC[C@H](N1)C(=O)OCC(C)(C)C2 (atropisomer, axis not shown) [Example A720, (2R)-2-(((1-(4-(dimethylamino)-4-methylpent-2-ynoyl)azetidin-3-yl)oxy)methyl)-N-((6^3S,4S,Z)-1^1-ethyl-1^2-(2-((S)-1-methoxyethyl)pyridin-3-yl)-2^1,10,10-trimethyl-5,7-dioxo-6^1,6^2,6^3,6^4,6^5,6^6-hexahydro-1^1H,2^1H-8-oxa-1(5,3)-indola-6(1,3)-pyridazina-2(5,3)-triazolacycloundecaphane-4-yl)-3-methylbutanamide]	10 to 100	10 to 100	1000 to 10000	1000 to 10000	> 10000	1000 to 10000	1000 to 10000	1000 to 10000	10 to 100	1000 to 10000	1000 to 10000	1000 to 10000
C=CC(=O)N1CCC(F)(C(=O)N(C)[C@H](C(=O)N[C@H]2C[C@H]3CN(CCO3)c3ccc4c(c3)c(c(-c3cccnc3[C@H](C)OC)n4CC)CC(C)(C)COC(=O)[C@@H]3CCCN(N3)C2=O)C(C)C)CC1 (atropisomer, axis not shown) [Example A722, 1-acryloyl-N-((2S)-1-(((6^3S,4S)-1^1-ethyl-1^2-(2-((S)-1-methoxyethyl)pyridin-3-yl)-10,10-dimethyl-5,7-dioxo-6^1,6^2,6^3,6^4,6^5,6^6-hexahydro-1^1H-8-oxa-2(4,2)-morpholina-1(5,3)-indola-6(1,3)-pyridazinacycloundecaphane-4-yl)amino)-3-methyl-1-oxobutan-2-yl)-4-fluoro-N-methylpiperidine-4-carboxamide]	10 to 100	10 to 100	100 to 1000	1000 to 10000	1000 to 10000	100 to 1000	1000 to 10000	1000 to 10000	10 to 100	1000 to 10000	1000 to 10000	100 to 1000
